The source of these data is patent US20210030022A1, “NOVEL USE OF SUBSTITUTED CHROMAN-6-OLS” (DSM IP ASSETS B.V., priority 2018, published 2021).

Data set [1] in a line: Oil Stability Index (OSI) in fish oil, Example 13. The note with it: for antioxidant activity (OSI) in fish oil compared with MNT: Example 13, 0.5 and 2 mg/g; for OSI: Table 28, FG30TG fish oil, 80° C.; for Protection Factor (%): Table 34, fish oil (80° C.). The procedure:
The compounds of formulae (3) and (7) were used in both fish and algal oils to see their antioxidant effect in these oils. Antioxidant effect was determined using mainly the Oil Stability Index (OSI). Two concentration levels were used: 0.5 mg/g (low level) and 2 mg/g (high level), respectively, have been added to 5 g of oil and used in the Oxidative Stability Instrument operated at 80° C. with the continuous air flow rate at ˜40 psi. All samples were run in duplicate. The Protection Factors (PF) for each compound, as percentage, in oil were calculated as, [formula]

A further data set is described as follows: Solubility in fish oil. Type of data set: physicochemical. As for the experimental part:
The compounds of formulae (4), (6), (8) and (9) were evaluated primarily for their oxidative stability by the Oil Stability Index (OSI) measurements. Two different levels of these antioxidants (0.5 and 2 mg/g) were used in 5 g of natural fish oil (Product code: FG30TG) and used in the Oxidative Stability Instrument at 80° C. with the air flow rate of 40 psi. The solubility of different amounts and types of antioxidants used in OSI was checked before and after the application. […]

Data set [2] in a line: Storage stability in fish oil (PV, p-AV), Example 13. To be noted: storage at 25° C. As for the experimental part:
A storage stability study was performed to compare the variation of primary oxidation products, the hydroperoxides, generated during oxidation, measured in terms of peroxide value (PV) and the secondary oxidation products which were measured and determined as anisidine reactive substances or p-anisidine value (p-AV) of oil samples containing these compounds.
The two different concentrations of compounds of formulae (3) and (7) were used for the storage stability study. Each compound and MNT were added, each individually, to 40 g of fish oil samples in 60 ml amber bottles at 0.5 mg/g and 2 mg/g levels, thoroughly mixed and stored at ambient temperature for 19 days. All sample bottles were stored open to air, away from light. […] Peroxide values (PV) and p-anisidine values (p-AV) were determined at different times for 19 days.

Data set [3] is described as follows: Oil Stability Index (OSI) in crude algal oil, Example 13. The note with it: for OSI: Table 33, crude algal oil (contained about 1.6 mg/g MNT prior to use), 80° C.; for Protection Factor (%): Table 35, crude algal oil (80° C.). As for the experimental part:
The compounds of formulae (3) and (7) were used in both fish and algal oils to see their antioxidant effect in these oils. Antioxidant effect was determined using mainly the Oil Stability Index (OSI).
Two concentration levels were used: 0.5 mg/g (low level) and 2 mg/g (high level), respectively, have been added to 5 g of oil and used in the Oxidative Stability Instrument operated at 80° C. with the continuous air flow rate at ˜40 psi. All samples were run in duplicate. The Protection Factors (PF) for each compound, as percentage, in oil were calculated as,
The Oil Stability Indices (OSI) of crude algal oil with levels of 0.5 mg/g and 2 mg/g of compounds of formulae (3) or (7) are shown in Table 33.

Data set [4] in a line: Oil Stability Index (OSI) in fish oil, Example 12. The note with it: FG30TG fish oil. The procedure:
The compounds of formulae (4), (6), (8) and (9) were evaluated primarily for their oxidative stability by the Oil Stability Index (OSI) measurements. Two different levels of these antioxidants (0.5 and 2 mg/g) were used in 5 g of natural fish oil (Product code: FG30TG) and used in the Oxidative Stability Instrument at 80° C. with the air flow rate of 40 psi. The solubility of different amounts and types of antioxidants used in OSI was checked before and after the application.
The compounds of formulae (6) and (9) (see Table 14 below), compound of formula (4) (see Table 15 below) and compound of formula (8) (see Table 16 below) were used at different times in the Oxidative Stability instruments under similar operational conditions used for fish oil evaluations. MNT and the oil without any antioxidants (“Blank”) were always used to compare. Also, the synergistic effect of only oil soluble compounds with ascorbyl palmitate was determined using the OSI values. The polymers generated at the end of the experiment were determined by LC (LC=liquid chromatography).
The Protection Factors (PF) for each compound in oil were calculated in percentage as: […]

A short description of data set [5]: Storage stability in fish oil (PV, p-AV, CD), Example 12. The note with it: FG30TG, 2 mg/g. As for the experimental part: Tables 25, 26 and 27 show the PV (peroxide value), p-AV (p-anisidine value) and CD (Conjugated dienoic acid %) of the fish oil samples stabilized with compounds of formulae (6), (8) and (9), respectively.
For the storage stability study oil soluble compounds were used in fish oil at 2 mg/g level only. […] There was no considerable variation in p-AV and CD (Tables 26-27) during the storage.

For “6-Hydroxy-7-Methoxy-2,2-Dimethyl-Chroman-4-One [Compound of formula (10)]”, in data set [1], the “antioxidant activity (OSI) in fish oil compared with MNT” value was “comparable antioxidant activity to MNT”.
For `CC(C)CCCC1(C)CCc2cc(O)ccc2O1` (centres unmarked) [Compound of formula (7), 2-(4-methylpentyl)-2-methyl-chroman-6-ol], the Solubility in oil result in the data set “Solubility in fish oil” (fish oil, 0.5 and 2 mg/g, mixed around 40° C. to dissolve completely) is given as “not readily soluble in oil”. Besides, the “OSI” value in data set [1] (0.5 mg/g) was 6.15 h; in data set [1] (2 mg/g), 7.23 h; in data set [3] (0.5 mg/g) it was 16.38 h; in data set [3] (2 mg/g), 18.53 h. In addition, the “Protection Factor (%)” value in data set [1] (0.5 mg/g) is 23%; in data set [1] (2 mg/g), 44.5%; in data set [3] (0.5 mg/g) it was 9.2%; in data set [3] (2 mg/g) it was 23.5%. Besides, the “antioxidant activity (OSI) in fish oil compared with MNT” value in data set [1] is “comparable in activity with MNT”. Moreover, the “Peroxide values (PV, meq/kg)” value in data set [2] (0.5 mg/g level, 1 day) was found to be 1 meq/kg; in data set [2] (0.5 mg/g level, 5 days) it was 2 meq/kg; in data set [2] (0.5 mg/g level, 8 days), 6.4 meq/kg; in data set [2] (0.5 mg/g level, 14 days), 11.8 meq/kg; in data set [2] (0.5 mg/g level, 19 days), 19.5 meq/kg; in data set [2] (0.5 mg/g level, Initial), 1 meq/kg. In addition, the “Peroxide values (PV, meq/kg)” value in data set [2] (2 mg/g level, 1 day) came out at 1 meq/kg; in data set [2] (2 mg/g level, 5 days), 1.9 meq/kg; in data set [2] (2 mg/g level, 8 days), 8.2 meq/kg; in data set [2] (2 mg/g level, 14 days) it was 16.4 meq/kg; in data set [2] (2 mg/g level, 19 days), 27.3 meq/kg; in data set [2] (2 mg/g level, Initial) it was 1 meq/kg. In addition, the “p-Anisidine value (p-AV)” value is reported as 9.5 in data set [2] (0.5 mg/g level, 1 day); 9.8 in data set [2] (0.5 mg/g level, 5 days); 11.1 in data set [2] (0.5 mg/g level, 8 days); 12.4 in data set [2] (0.5 mg/g level, 14 days); 12.9 in data set [2] (0.5 mg/g level, 19 days); 9.4 in data set [2] (0.5 mg/g level, Initial). The “p-Anisidine value (p-AV)” value in data set [2] (2 mg/g level, 1 day) was determined as 9.3; in data set [2] (2 mg/g level, 5 days), 9.3; in data set [2] (2 mg/g level, 8 days), 11.1; in data set [2] (2 mg/g level, 14 days) it was 11.9; in data set [2] (2 mg/g level, 19 days), 12.9; in data set [2] (2 mg/g level, Initial), 9.4.
Take `CC(C)CCCC(C)CCCC1(C)CCc2cc(O)ccc2O1` (centres unmarked) [Compound of formula (8), 2-(4,8-dimethylnonyl)-2-methyl-chroman-6-ol]: the “Solubility in fish oil, 80° C.” value in “Solubility in fish oil” (0.5 mg/g) and in “Solubility in fish oil” (2.0 mg/g) was “soluble” throughout. The “Solubility in fish oil, Room temp.” value in the data set “Solubility in fish oil” (0.5 mg/g) and in “Solubility in fish oil” (2.0 mg/g) was “soluble” throughout. For the same compound, the “OSI” value in data set [4] (Table 16, 80° C., 0.5 mg/g) is reported as 5.48 h; in data set [4] (Table 16, 80° C., 2 mg/g) it was 5.96 h; in data set [4] (Table 21, 2 mg/g + 0.5 mg/g of AP (ascorbyl palmitate)), 7.03 h; in data set [4] (Table 21, 2 mg/g, without AP), 6.58 h. Besides, the “Protection Factor (%)” value in data set [4] (Table 19, 0.5 mg/g) came to 15.42%; in data set [4] (Table 19, 2 mg/g) it was 25.89%; in data set [4] (Table 23, 2 mg/g + 0.5 mg/g of AP), 130%; in data set [4] (Table 23, 2 mg/g, without AP), 145%. The “CD (conjugated dienoic acid in %)” value in data set [5] (4 days) was 0.6%; in data set [5] (6 days), 0.6%; in data set [5] (8 days), 0.2%; in data set [5] (11 days), 0.7%; in data set [5] (13 days), 0.7%; in data set [5] (15 days), 0.8%. In addition, the “CD (conjugated dienoic acid in %)” value in data set [5] (Initial) was 0.7%. Further, the “PV (peroxide value)” value came to 1.6 in data set [5] (4 days); 1.8 in data set [5] (6 days); 3.1 in data set [5] (8 days); 3.7 in data set [5] (11 days); 8.7 in data set [5] (13 days); 11.5 in data set [5] (17 days). Further, the “PV (peroxide value)” value in data set [5] (Initial) was 0.9. The “p-AV (p-anisidine value)” value was determined as 10.3 in data set [5] (4 days); 9.8 in data set [5] (6 days); 10 in data set [5] (8 days); 10.4 in data set [5] (11 days); 10.6 in data set [5] (13 days); 11 in data set [5] (17 days). The “p-AV (p-anisidine value)” value in data set [5] (Initial) is on record as 9.9.
